From patent US9487470B2, “4-((substituted phenyl) difluoromethyl) phenoxy carboxylic acid derivative, and preparation method and uses thereof” (Zhejiang Hisun Pharmaceutical Co., Ltd., priority 2012, dated 2016)
Blank lines part the entries; values can stand above or below the compound they belong to.

Columns and labels:
[1] = tested on: hyperlipoidemia model of Goldenhamsters (blood plasma TC, TG, HDL-C, LDL-C); test: Pharmacodynamic test group 3: effects on blood lipid levels of Goldenhamsters in a hyperlipoidemia model; format: in vivo; details: for HDL-C, after administration / LDL-C, after administration / TC, after administration / TG, after administration: 40 mg/kg intragastric, 1 week, high-lipid feed continued, asterisks = P vs before administration; for HDL-C, after administration / LDL-C, after administration / TC, after administration / TG, after administration / HDL-C, before administration / LDL-C, before administration / TC, before administration / TG, before administration: blood plasma, x±s; for effect on HDL-C, in comparison with the results before administration (in words) / effect on LDL-C, in comparison with the results before administration (in words) / effect on TC, in comparison with the results before administration (in words) / effect on TG, in comparison with the results before administration (in words): t test after vs before administration; for HDL-C, before administration / LDL-C, before administration / TC, before administration / TG, before administration: baseline of the group before administration, high-lipid feed 2 weeks, 6 animals
Description: (§1) Animals: 120 male Goldenhamsters, aged 8 weeks, body weight 80-100 g, provided by Vital River Laboratories, Beijing.
Kits: The kits for total cholesterol (TC), triglyceride (TG), and high density lipoprotein cholesterol (HDL-C) were provided by SYSMEX, and the kits for low density lipoprotein cholesterol (LDL-C) were provided by Shanghai Kehua Bio-engineering Co., Ltd.
(§2) Apparatus: SYSMEX Automatic Biochemistry Analyzer, Bechman centrifuge, Setoris balance.
(§3) The animals were acclimatized and fed for 1 week, ad lib, light cycle was 10 h/14 h, and then feeds with high lipid content were fed to the animals (formulation: 0.3% cholesterol, 20% palm oil, and 79.7% basic feeds). The animals were fed for 2 weeks, and were fasted at 4:00 pm of the 14th day (fasted for 16 h). At the 15th day, the animals were anaesthetized with ethyl ether, weighted, and then 0.5 ml blood was collected from vena orbitalis posterior. The blood was anticoagulated with heparin, and was centrifugated at 5000 rpm for 10 min. The blood plasma was taken, and the levels of TC, TG, HDL-C, and LDL-C in blood plasma were determined using automatic biochemistry analyzer.
(§4) During the administration, feeds with high lipid content were continuously fed to the animals. The animals were fed for 1 week, and were fasted at 4:00 pm of the 7th day. At the 8th day, the animals were anaesthetized with ethyl ether, weighted, and then 0.5 ml blood was collected from vena orbitalis posterior. The blood was anticoagulated with heparin, and was centrifugated at 5000 rpm for 10 min. The blood plasma was taken, and the levels of TC, TG, HDL-C, and LDL-C in blood plasma were determined using automatic biochemistry analyzer.
(§5) The results were represented by x±s, and t test was employed for comparing the results obtained before and after administration.

[2] = tested on: hyperlipoidemia model of Goldenhamsters (blood plasma TC, HDL-C, LDL-C); test: Pharmacological test group 2: effects on blood lipid levels of Goldenhamsters in hyperlipoidemia model; format: in vivo; details: for effect on HDL-C, in comparison with the results before administration (in words) / effect on LDL-C, in comparison with the results before administration (in words) / effect on TC, in comparison with the results before administration (in words): t test after vs before administration; for HDL-C, before administration / LDL-C, before administration / TC, before administration: baseline of the group before administration, high-lipid feed 2 weeks, 6 animals
Description: as §1
Kits: The kits for total cholesterol (TC) and high density lipoprotein cholesterol (HDL-C) were provided by SYSMEX, and the kits for low density lipoprotein cholesterol (LDL-C) were provided by Shanghai Kehua Bio-engineering Co., Ltd.
as §2
as §3, with “pm on” for “pm of”, “h). On” for “h). At”, “TC,” for “TC, TG,”
as §4, with “pm on” for “pm of”, “day. On” for “day. At”, “TC,” for “TC, TG,”
as §5

[3] = Solubility in water (remark on the test drugs); format: physicochemical; details: formulated with 20% solutol
[4] = tested on: hyperlipoidemia model of Goldenhamsters (blood plasma TC, TG, HDL-C, LDL-C); test: Pharmacological test group 1: effects on blood lipid levels of Goldenhamsters in a hyperlipoidemia model; format: in vivo; details: for HDL-C, after administration / LDL-C, after administration / TC, after administration / TG, after administration: 40 mg/kg intragastric, 1 week, high-lipid feed continued, asterisks = P vs before administration
[5] = background statement; cited from earlier work
[6] = 40 mg/kg intragastric, 1 week, high-lipid feed continued, blood plasma, x±s, asterisks = P vs before administration
[7] = 40 mg/kg, t test after vs before administration
[8] = baseline of the group before administration, high-lipid feed, blood plasma, x±s, 6 animals

solubility in water [3]: insoluble
Compound: CC(C)OC(=O)C(C)(C)Oc1ccc(C(F)(F)c2ccc(Cl)cc2)cc1 [HS003-004, isopropyl 2-(4-((4-chlorophenyl)difluoromethyl)phenoxy)-2-methylpropionate]
blood lipid-regulating effects (conclusion from table 4) ([1]; 40 mg/kg): excellent blood lipid-regulating effects | HDL-C, after administration [1]: 3.16 ± 0.24 | LDL-C, after administration [1]: 1.86 ± 0.78 | TC, after administration [1]: 9.49 ± 1.82 | TG, after administration [1]: 2.22 ± 1.61 | therapeutic effect compared with fenofibrate (conclusion from table 4) ([1]; 40 mg/kg, fenofibrate 40 mg/kg): outstanding therapeutic effects, and are superior to fenofibrate | effect on HDL-C, in comparison with the results before administration (in words) ([1]; 40 mg/kg): increases | effect on LDL-C, in comparison with the results before administration (in words) ([1]; 40 mg/kg): significantly decreases | effect on TC, in comparison with the results before administration (in words) ([1]; 40 mg/kg): significantly decreases | effect on TG, in comparison with the results before administration (in words) ([1]; 40 mg/kg): significantly decreases | HDL-C, before administration [1]: 2.54 ± 0.22 | LDL-C, before administration [1]: 3.54 ± 0.71 | TC, before administration [1]: 12.68 ± 1.8 | TG, before administration [1]: 3.94 ± 1.07 | blood lipid-regulating effects (conclusion from table 3) ([2]; 40 mg/kg): excellent blood lipid-regulating effects | HDL-C, after administration [2, 6]: 1.83 ± 0.18 | LDL-C, after administration [2, 6]: 1.97 ± 0.66 | TC, after administration [2, 6]: 9.86 ± 0.83 | therapeutic effect compared with fenofibrate (conclusion from table 3) ([2]; 40 mg/kg, fenofibrate 40 mg/kg): outstanding therapeutic effects, and are superior to fenofibrate | effect on HDL-C, in comparison with the results before administration (in words) ([2]; 40 mg/kg): increases | effect on LDL-C, in comparison with the results before administration (in words) ([2]; 40 mg/kg): significantly decreases | effect on TC, in comparison with the results before administration (in words) ([2]; 40 mg/kg): significantly decreases | HDL-C, before administration ([2]; blood plasma, x±s): 1.61 ± 0.21 | LDL-C, before administration ([2]; blood plasma, x±s): 3.26 ± 1.58 | TC, before administration ([2]; blood plasma, x±s): 13.82 ± 2.69 | regulating effects on the levels of blood lipid (conclusion from table 2) ([4]; 40 mg/kg): tend to the effects of significantly decreasing TG, TC, and LDL-C | HDL-C, after administration ([4]; blood plasma, x±s): 3.7 ± 0.31 | LDL-C, after administration ([4]; blood plasma, x±s): 1.27 ± 0.26 | TC, after administration ([4]; blood plasma, x±s): 9.16 ± 1.22 | TG, after administration ([4]; blood plasma, x±s): 1.30 ± 0.23 | effect on HDL-C, in comparison with the results before administration (in words) [4, 7]: increases | effect on TC, in comparison with the results before administration (in words) [4, 7]: significantly decreases | effect on TG, in comparison with the results before administration (in words) [4, 7]: significantly decreases

Compound: fenofibrate [reference compound]
LDL-C, after administration [2, 6]: 2.45 ± 0.8 | effect on HDL-C, in comparison with the results before administration (in words) ([2]; 40 mg/kg): increases | effect on LDL-C, in comparison with the results before administration (in words) ([2]; 40 mg/kg): significantly decrease | effect on TC, in comparison with the results before administration (in words) ([2]; 40 mg/kg): significantly decrease | HDL-C, before administration ([2]; blood plasma, x±s): 1.46 ± 0.29 | LDL-C, before administration ([2]; blood plasma, x±s): 4.24 ± 1.51 | TC, before administration ([2]; blood plasma, x±s): 13.74 ± 2.71 | HDL-C, after administration ([4]; blood plasma, x±s): 4.11 ± 0.15 | LDL-C, after administration ([4]; blood plasma, x±s): 1.15 ± 0.3 | TG, after administration ([4]; blood plasma, x±s): 1.13 ± 0.47 | effect on HDL-C, in comparison with the results before administration (in words) [4, 7]: increases | effect on TG, in comparison with the results before administration (in words) [4, 7]: significantly decreases | HDL-C, before administration [4, 8]: 3.16 ± 0.24 | LDL-C, before administration [4, 8]: 1.35 ± 0.25 | TG, before administration [4, 8]: 2.39 ± 1 | adverse effects to gastrointestinal tract [5]: significant adverse effects to gastrointestinal tract

solubility in water [3]: insoluble
Compound: CC(C)OC(=O)C(C)(C)Oc1ccc(C(F)(F)c2ccccc2)cc1 [HS003-008, Isopropyl 2-(4-(phenyldifluoromethyl)phenoxy)-2-methylpropionate]
blood lipid-regulating effects (conclusion from table 4) ([1]; 40 mg/kg): excellent blood lipid-regulating effects | HDL-C, after administration [1]: 3.4 ± 0.11 | LDL-C, after administration [1]: 2.11 ± 0.89 | TC, after administration [1]: 10.84 ± 1.83 | TG, after administration [1]: 2.49 ± 0.99 | effect on HDL-C, in comparison with the results before administration (in words) ([1]; 40 mg/kg): increase | effect on LDL-C, in comparison with the results before administration (in words) ([1]; 40 mg/kg): significantly decrease | effect on TC, in comparison with the results before administration (in words) ([1]; 40 mg/kg): significantly decrease | effect on TG, in comparison with the results before administration (in words) ([1]; 40 mg/kg): significantly decrease | HDL-C, before administration [1]: 2.86 ± 0.14 | LDL-C, before administration [1]: 3.18 ± 0.81 | TC, before administration [1]: 12.85 ± 2 | TG, before administration [1]: 3.93 ± 1.09 | regulating effects on the levels of blood lipid (conclusion from table 2) ([4]; 40 mg/kg): tend to the effects of significantly decreasing TG, TC, and LDL-C | HDL-C, after administration ([4]; blood plasma, x±s): 3.46 ± 0.26 | LDL-C, after administration ([4]; blood plasma, x±s): 1.0 ± 0.45 | TC, after administration ([4]; blood plasma, x±s): 9.85 ± 1.48 | TG, after administration ([4]; blood plasma, x±s): 1.22 ± 0.84 | effect on LDL-C, in comparison with the results before administration (in words) [4, 7]: significantly decreases | effect on TG, in comparison with the results before administration (in words) [4, 7]: significantly decreases
